Test [1] has as its target T1, porcine leukocyte 12/15-lipoxygenase (Sus scrofa, UniProt P16469).
T1 construct: purchased Cayman 60300
T1 sequence (P16469 1-663): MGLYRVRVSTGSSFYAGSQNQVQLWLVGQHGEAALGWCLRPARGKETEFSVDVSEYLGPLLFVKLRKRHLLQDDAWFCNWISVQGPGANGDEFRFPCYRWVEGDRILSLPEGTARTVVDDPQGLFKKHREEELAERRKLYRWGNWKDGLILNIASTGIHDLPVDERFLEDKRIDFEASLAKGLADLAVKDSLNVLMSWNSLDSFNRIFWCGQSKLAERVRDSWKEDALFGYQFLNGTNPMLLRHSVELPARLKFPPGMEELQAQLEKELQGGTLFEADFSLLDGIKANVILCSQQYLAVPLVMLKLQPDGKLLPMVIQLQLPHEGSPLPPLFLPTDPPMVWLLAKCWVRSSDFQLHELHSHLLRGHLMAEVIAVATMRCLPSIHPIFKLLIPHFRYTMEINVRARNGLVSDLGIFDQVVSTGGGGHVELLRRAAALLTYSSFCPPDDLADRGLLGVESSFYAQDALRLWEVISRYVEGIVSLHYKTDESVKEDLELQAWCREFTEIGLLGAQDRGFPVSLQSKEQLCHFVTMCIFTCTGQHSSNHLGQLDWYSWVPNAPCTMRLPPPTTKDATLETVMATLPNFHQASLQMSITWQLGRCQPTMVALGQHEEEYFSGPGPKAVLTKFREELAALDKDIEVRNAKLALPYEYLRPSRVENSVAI
Description: 12/15-Lipoxygenase enzyme assay. The format is biochemical. Particulars: 70 μM arachidonic acid, pH 7.4, 10 minute incubation; read-out: IC50, inhibition of 12/15-Lipoxygenase. The source says: (§1) In vitro evaluation of the ability of a composition to inhibit the enzymes 5-lipoxygenase, 15-lipoxygenase, or 12/15 lipoxygenase as described in Walidge, N. B. et al Anal. Biochem., 231: 354-358 (1995) using a high throughput colorimetric method; as well as in vitro evaluation of inhibiting LTB4 is described in Examples.
This procedure was used for measuring the enzymatic activity of porcine leukocyte 12/15-lipoxygenase using a colorimetric method based on the ferric oxidation of xylenol orange.
• 96 well flat bottom microfilter plates (VWR, Catalog #62402-933 9295) • Lipoxygenase screening assay buffer (Cayman, Catalog #760710) • Porcine leukocyte 12/15-lipoxygenase (Cayman, Catalog #60300) • Arachidonic Acid (Sigma, Catalog #A3555) • Xylenol orange tetrasodium salt (Aldrich, Catalog #227854) • Iron (II) sulfate heptahydrate (Sigma, Catalog #F7002) • Sulfuric acid (95-98%) [18M] • Methanol Procedure
(§2) Porcine Leukocyte 12/15-lipoxygenase (Cayman Cat #60300) was used in this assay. Test compound and/or vehicle was added to 1.3 U 12/15-lipoxygenase in 50 mM Tris-HCl buffer, pH 7.4. The reaction was initiated by addition of 70 μM arachidonic acid in Tris-HCl buffer, pH 7.4, and terminated after a 10 minute incubation at room temperature by addition of FOX reagent (25 mM sulphuric acid, 100 μM xylenol orange, 100 μM iron (II) sulphate, methanol:water 9:1). The yellow color of acidified xylenol orange was converted to a blue color by the lipid hydroperoxide-mediated oxidation of Fe 2+ ions and the interaction of the resulting Fe 3+ ions with the dye. The complex was allowed to form during a 1 hour incubation at room temperature with shaking. Absorbance of the Fe 3+ complex was then measured at […] using a spectrophotometer.
(§3) Negative controls contained enzyme during the incubation step but substrate was not added until after the FOX reagent.
Compounds are screened at 5 concentrations in triplicate starting at 10 μM

Test [2] concerns release of the leukotriene LTB4 from MPRO cell line. Description: LTB4 assay (competitive ELISA). In kind it is cell-based. The following applies: Mus musculus; 1 μM calcium ionophore A23187, 1 hour; read-out: EC50, inhibition of LTB4 production. The source says:
This procedure was used for measuring the release of the leukotriene LTB4 from a neutrophil cell line using a competitive ELISA technique.
• MPRO cell line (ATCC, Catalog #CRL-11422) • Calciumionophore (A23187) (Sigma, Catalog #C7522) • Nordihydroguaiaretic acid (NDGA) (BioMol, Catalog #E1101-0001) • Retinoic Acid (all-trans) (ATRA) (Sigma, Catalog #95152) • Sterile, tissue-culture treated 96-well plates (Corning, Catalog #3614) Materials for LTB4 ELISA • Precoated (Mouse Anti-Rabbit IgG) EIA 96 Well Strip Plates (Cayman, Catalog #400004) • Leukotriene B4 AChE Tracer (Cayman Catalog #420110) • Leukotriene B4 EIA Antiserum (Cayman Catalog #420112) • Ellman's Reagent (Cayman Catalog #400050) • EIA Buffer Concentrate (10×) (Cayman Catalog #400060) • Wash Buffer Concentrate (400×) (Cayman Catalog #400062) • Plastic plate covers (Cayman Catalog #400012) Procedure
A mouse promyelocytic cell line (MPRO) was used in this assay. These cells are committed immature neutrophils that can be differentiated into mature neutrophils by treatment with 10 μM all-trans retinoic acid for 72 hours
Following 72 hours of differentiation, cells were stimulated with 1 μM of a calcium ionophore (A23187) in the presence or absence of test compound or vehicle for 1 hour at 370 C. After this time, supernatant was removed from the cells and the LTB4 levels were determined following manufacturer's instructions, using a Leukotriene B4 EIA kit from Cayman (Cat #520111)
The negative controls were media samples from differentiated but unstimulated cells.
The compounds were screened at 5 concentrations in quadruplicate starting at 10 μM
(An ELISA detects its analyte on a solid surface through an enzyme-linked reagent.)

The target in test [3] is T2, human recombinant 5-lipoxygenase (Homo sapiens, UniProt P09917).
T2 construct: purchased Cayman 60402
T2 sequence (P09917 1-674): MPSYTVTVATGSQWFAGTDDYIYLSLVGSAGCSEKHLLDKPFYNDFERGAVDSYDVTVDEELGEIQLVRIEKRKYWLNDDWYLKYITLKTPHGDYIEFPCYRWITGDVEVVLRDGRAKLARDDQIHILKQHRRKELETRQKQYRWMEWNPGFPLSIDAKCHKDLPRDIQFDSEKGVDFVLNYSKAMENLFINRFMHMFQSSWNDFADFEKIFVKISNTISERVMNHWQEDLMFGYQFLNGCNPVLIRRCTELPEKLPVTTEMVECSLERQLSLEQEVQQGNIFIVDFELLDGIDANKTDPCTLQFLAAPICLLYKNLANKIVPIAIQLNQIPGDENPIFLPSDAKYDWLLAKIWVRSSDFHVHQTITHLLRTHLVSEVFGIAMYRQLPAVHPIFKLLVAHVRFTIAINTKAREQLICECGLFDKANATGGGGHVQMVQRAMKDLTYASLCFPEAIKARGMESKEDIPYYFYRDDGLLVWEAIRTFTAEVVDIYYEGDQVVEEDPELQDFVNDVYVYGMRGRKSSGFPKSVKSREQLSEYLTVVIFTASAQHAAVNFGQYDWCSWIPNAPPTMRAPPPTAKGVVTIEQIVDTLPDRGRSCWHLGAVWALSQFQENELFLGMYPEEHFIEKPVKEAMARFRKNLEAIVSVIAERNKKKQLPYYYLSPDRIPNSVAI
The test is described as follows: 5-Lipoxygenase enzyme assay. The format is biochemical. The following applies: 70 μM arachidonic acid, pH 7.4, 10 minute incubation; read-out: IC50, inhibition of 5-Lipoxygenase.
Source text: as §1
This procedure was used for measuring the enzymatic activity of human recombinant 5-lipoxygenase using a colorimetric method based on the ferric oxidation of xylenol orange.
• 96 well flat bottom microfilter plates (VWR, Catalog #62402-933 9295) • Lipoxygenase screening assay buffer (Cayman, Catalog #760710) • Human recombinant 5-lipoxygenase (Cayman, Catalog #60402) • Arachidonic Acid (Sigma, Catalog #A3555) • Xylenol orange tetrasodium salt (Aldrich, Catalog #227854) • Iron (II) sulfate heptahydrate (Sigma, Catalog #F7002) • Sulfuric acid (95-98%) [18M]—Methanol Procedure
as §2, with “Human recombinant 5-lipoxygenase” for “Porcine Leukocyte 12/15-lipoxygenase”, “#60402)” for “#60300)”, “The test” for “Test”, “0.51-1 5-lipoxygenase” for “1.3 U 12/15-lipoxygenase”
as §3
Compounds were screened at 5 concentrations in triplicate starting at 10 μM

Test [4] concerns dopaminergic neuronal cell line. Description: High glutamate-induced oxidative stress assay (HGOS). In kind it is cell-based. The following applies: Mus musculus; 30 mM glutamate, 16 hrs; read-out: EC50, protection against HGOS cell injury and cell death. The source says:
Protection against redox stress can be evaluated in cell culture using high glutamate induced oxidative stress (HGOS) in mouse dopaminergic cell lines. The cytotoxic effect of glutamate is not due to excitotoxicity, as this cell line is devoid of inotropic glutamate receptors. Rather, the glutamate-induced toxicity of dopaminergic cells is associated with an inhibition of cystine transport which subsequently leads to depletion of intracellular glutathione (GSH) levels (Murphy T. H., et al. Neuron 2, 1547-1558, 1989), activation of neuronal 12-lipoxygenase (Li, Y. et al., Neuron 19, 453-463, 1997), increased ROS production (Tan S. et al., J. Cell Biol. 141, 1423-1432, 1998) and elevated intracellular Cat^2+ (Li, Y. et al., see supra). Some molecules were measured for their ability to protect cells against glutamate-induced stress and the assay is detailed in Examples.
This procedure was used to induce high glutamate-induced oxidative stress (HGOS) in a dopaminergic neuronal cell line. Using this assay the potency and efficacy of test articles against HGOS neuronal cell injury and cell death was established in a high throughput manner.
• Dopaminergic neuronal cell lines • DMEM-No Glucose (Life Technologies Cat #11966-025) • L-glutamine (Life Technologies Cat #25030-081) • L-glutamic acid, monosodium salt (Sigma Cat #G5889) • D-glucose (Sigma Cat #G-6151) • 10×HBSS buffer (pH 7.4) (950 ml Pyrogen-free water, 2.44 g/L MgCl2.6H20, 3.73 g/L KCl, 59.58 g/L Hepes, 58.44 g/L NaCl, 1.36 g/L KH2PO4, 1.91 g/L CaCl2.2H2O and pH to […] with HCl) • Cell Tracker Green fluorescent dye (Molecular Probes, Cat #2925). Prepare a 5NM solution in pre-warmed HBSS just prior to use. • Sterile 96-well plates precoated with poly-D-lysine (Corning Catalog #3665) • 96-well deep well mother plate, DyNA Block 1000 (VWR Catalog #40002-008) Neuronal Cells
The cells were seeded into 96-well plates at a density of 2000 per well and left to grow for 72 hours in a 33° C. incubator with 5% CO2 in air atmosphere. The passage number of the cells for each assay experiment were no later than p11 in order to minimize experimental variation.
All compounds were dissolved in DMEM-No Glu containing 1 mM glucose, 30 mM glutamate and 1× Pen/Strep. DMEM-No Glu with 1 mM glucose and 1× P/S was used as the negative control, DMEM-No Glucose with 1 mM glucose, […] glutamate was used as a positive control and 100 NM Glutathione was added to the positive control as a standard. All of the procedures for this involving the making and dilution of compounds were performed using aseptic conditions and with minimal light.
The plates were removed from the incubator and examined under the microscope for morphological appearance and density. Using an aseptic technique and an 8-channel aspirator the media was carefully removed from the cells and replaced with 200 μI of 1×HBSS. This was done as quickly as possible to prevent the cells drying out. The plates were then placed in the humidified 37° C. incubators of the Biomek 2000 Side Loader. Four plates were washed at a time so as to minimize the time that the cells were sitting in 1×HBSS prior to addition of the compound test solution. Experimental Setup
The Beckman Biomek workstations were used to load the compounds and controls from the mother plates onto the cell plates that were prewashed with HBSS under sterile conditions. The plates were incubated in the upper HTS incubator at 37° C. in 5% CO2 for exactly 16 hrs. The following day, using the Beckman Biomek workstations, the plates were removed from the incubator. Using Cell Tracker Addition, the compounds were removed from the plates, washed once with […] of pre-warmed 1×HBSS and then 100 μL of 5 μM Cell Tracker Green was added to each well. The plates were incubated at 37° C. for 30 min to allow the dye to enter the cell and be cleaved by the esterases. […]

Turning to `Cc1cc(C2(C)CCc3c(C)c(O)c(C)c(C)c3O2)c(C)s1` (stereo not drawn) [2-(2,5-Dimethyl-thiophen-3-yl)-2,5,7,8-tetramethyl-chroman-6-ol], the IC50 in test [1] and in test [3] was less than 1000 nM in each case. Further, the EC50 in test [2] is less than 1000 nM.
As for `Cc1c(C)c2c(c(C)c1O)CCC(C)(c1cccs1)O2` (stereo not drawn) [2,5,7,8-Tetramethyl-2-thiophen-2-yl-chroman-6-ol], the IC50 in test [1] and in test [3] was less than 1000 nM in each case. Further, in test [2], the EC50 is less than 1000 nM.
Take `Cc1c(C)c2c(c(-c3ccc(C(=O)O)cc3)c1O)CCC(C)(C)O2` [4-(6-Hydroxy-2,2,7,8-tetramethyl-chroman-5-yl)-benzoic acid]: the EC50 in test [4] was less than 5000 nM; in test [2], less than 1000 nM.
`Cc1c(C)c2c(c(-c3cccc([N+](=O)[O-])c3)c1O)CCC(C)(C)O2` [2,2,7,8-Tetramethyl-5-(3-nitro-phenyl)-chroman-6-ol]: the EC50 in test [2] is less than 1000 nM.
For `Cc1c(C)c2c(c(C)c1O)CCC(C)(C=C(Cl)Cl)O2` (stereo not drawn) [2-(2,2-Dichloro-vinyl)-2,5,7,8-tetramethyl-chroman-6-ol], the IC50 in test [1] and in test [3] was less than 1000 nM each time.
`Cc1c(C)c2c(c(-c3cccnc3)c1O)CCC(C)(C)O2` [2,2,7,8-Tetramethyl-5-pyridin-3-yl-chroman-6-ol]: the concentration giving a half-maximal response (EC50) in test [4] is less than 5000 nM; in test [2], less than 1000 nM.
On to `Cc1cc(C2(C)CCc3cc(O)c(C)c(C)c3O2)c(C)s1` (stereo not drawn) [2-(2,5-Dimethyl-thiophen-3-yl)-2,7,8-trimethyl-chroman-6-ol], for which the EC50 in test [2] is less than 1000 nM. Also, in test [3], the IC50 was less than 1000 nM.

In general, EC50 refers to the midpoint of the concentration-response curve.
